Reference: patent US20070128217A1 (priority 2003, published 2007)

Columns and labels:
[1] = tested on: antibodies in sera from SARS patients (sera 1a, 1b, 2, 6, 37, 62, London, SARS-yellow, SARS-green); format: binding, human; parameters: Binding of serum 6 to linear peptides of protein X1 of SARS-CoV Urbani / Binding of serum 37 to linear peptides of protein X1 of SARS-CoV Urbani / Binding of serum 6 to looped/cyclic peptide (PEPSCAN-ELISA) / Binding of serum 37 to looped/cyclic peptide (PEPSCAN-ELISA) / Binding of serum 37 to looped/cyclic peptides of protein X1 of SARS-CoV Urbani / Binding of serum 6 to linear peptides of protein X2 / Binding of serum 37 to linear peptides of protein X2 / Binding of serum 37 to looped/cyclic peptides of protein X2 of SARS-CoV Urbani / Binding of serum 6 to linear peptides of protein M of SARS-CoV Urbani / Binding of serum 37 to linear peptides of protein M of SARS-CoV Urbani / Binding of serum 6 to looped/cyclic peptides of protein M of SARS-CoV Urbani / Binding of serum 37 to looped/cyclic peptides of protein M of SARS-CoV Urbani / Binding of serum 6 to linear peptides of protein X3 of SARS-CoV Urbani / Binding of serum 37 to linear peptides of protein X3 of SARS-CoV Urbani / Binding of serum 37 to looped/cyclic peptides of protein X3 of SARS-CoV Urbani / Binding of serum 6 to linear peptides of protein X4 of SARS-CoV Urbani / Binding of serum 37 to linear peptides of protein X4 of SARS-CoV Urbani / Binding of serum 37 to looped/cyclic peptides of protein X4 of SARS-CoV Urbani / Binding of serum 6 to linear peptides of protein X5 of SARS-CoV Urbani / Binding of serum 37 to linear peptides of protein X5 of SARS-CoV Urbani / Binding of serum 37 to looped/cyclic peptides of protein X5 of SARS-CoV Urbani / Binding of serum 6 to linear peptides of protein N of SARS-CoV Urbani / Binding of serum 37 to linear peptides of protein N of SARS-CoV Urbani / Binding of serum 6 to linear peptide (PEPSCAN-ELISA) / Binding of serum 1a to looped/cyclic peptides of protein N of SARS-CoV Urbani / Binding of serum 1b to looped/cyclic peptides of protein N of SARS-CoV Urbani / Binding of serum 2 to looped/cyclic peptides of protein N of SARS-CoV Urbani / Binding of serum 6 to looped/cyclic peptides of protein N of SARS-CoV Urbani / Binding of serum 37 to looped/cyclic peptides of protein N of SARS-CoV Urbani / Binding of serum 62 to looped/cyclic peptides of protein N of SARS-CoV Urbani / Binding of serum London to looped/cyclic peptides of protein N of SARS-CoV Urbani / Binding of serum SARS-green to looped/cyclic peptides of protein N of SARS-CoV Urbani: unit not given here
[2] = tested on: rabbit serum obtained by immunizing a rabbit with the SARS-CoV strain Frankfurt 1; format: binding; parameters: Binding of a rabbit serum to linear peptides / Binding of a rabbit serum to looped peptides / Rabbit serum linear peptides / Rabbit serum looped peptides / Binding of a rabbit serum to linear peptides of protein N of SARS-CoV Urbani (Rabbit serum linear peptides) / Binding of a rabbit serum to looped/cyclic peptides of protein N of SARS-CoV Urbani (Rabbit serum looped peptides): unit not given here
[3] = tested on: control sera (pooled serum of ten healthy LUMC hospital workers; commercial negative donor pooled serum from the Dutch bloodbank); format: binding, human; parameters: Binding of Control serum LUMC to linear peptides / Binding of Control serum Blood-bank to linear peptides / Binding of Control serum LUMC to looped peptides / Binding of Control Serum Blood-Bank to Looped peptides / Binding of Control serum LUMC to linear peptides of the protein M of SARS-CoV Urbani / Binding of Control serum Blood-bank to linear peptides of the protein M of SARS-CoV Urbani / Binding of Control serum LUMC to looped peptides of the protein M of SARS-CoV Urbani / Binding of Control Serum Blood-Bank to Looped peptides of the protein M of SARS-CoV Urbani: unit not given here

## AAFRDVLVVLNKRTN
[1]
  Binding of serum 1a to linear peptides of protein X5 of SARS-CoV Urbani: 0.6
  Binding of serum 1a to looped/cyclic peptides of protein X5 of SARS-CoV Urbani: 0.6
  Binding of serum 1b to linear peptides of protein X5 of SARS-CoV Urbani: 0.6
  Binding of serum 1b to looped/cyclic peptides of protein X5 of SARS-CoV Urbani: 0.4
  Binding of serum 2 to linear peptides of protein X5 of SARS-CoV Urbani: 0.6
  Binding of serum 2 to looped/cyclic peptides of protein X5 of SARS-CoV Urbani: 0.6
  Binding of serum 6 to linear peptides of protein X5 of SARS-CoV Urbani: 0.8
  Binding of serum 6 to looped/cyclic peptides of protein X5 of SARS-CoV Urbani: 0.8
  Binding of serum 37 to linear peptides of protein X5 of SARS-CoV Urbani: 0.5
  Binding of serum 37 to looped/cyclic peptides of protein X5 of SARS-CoV Urbani: 0.6
  Binding of serum 62 to linear peptides of protein X5 of SARS-CoV Urbani: 0.4
  Binding of serum 62 to looped/cyclic peptides of protein X5 of SARS-CoV Urbani: 0.5
  Binding of serum London to linear peptides of protein X5 of SARS-CoV Urbani: 0.6
  Binding of serum London to looped/cyclic peptides of protein X5 of SARS-CoV Urbani: 1.0
  Binding of serum SARS-green to linear peptides of protein X5 of SARS-CoV Urbani: 0.1
  Binding of serum SARS-green to looped/cyclic peptides of protein X5 of SARS-CoV Urbani: 0.4
  Binding of serum SARS-yellow to linear peptides of protein X5 of SARS-CoV Urbani: 0.8
  Binding of serum SARS-yellow to looped/cyclic peptides of protein X5 of SARS-CoV Urbani: 0.3
[2]
  Rabbit serum linear peptides: 0.5
  Rabbit serum looped peptides: 0.6
[3]
  Binding of Control Serum Blood-Bank to Looped peptides: 0.7
  Binding of Control serum Blood-bank to linear peptides: 0.6
  Binding of Control serum LUMC to linear peptides: 0.8
  Binding of Control serum LUMC to looped peptides: 0.4

## AAGMEAQFLYLYALI
[1]
  Binding of serum 1a to linear peptides of protein X1 of SARS-CoV Urbani: 0.7
  Binding of serum 1a to looped/cyclic peptide (PEPSCAN-ELISA): 0.6
  Binding of serum 1b to linear peptides of protein X1 of SARS-CoV Urbani: 0.6
  Binding of serum 1b to looped/cyclic peptide (PEPSCAN-ELISA): 0.4
  Binding of serum 2 to linear peptides of protein X1 of SARS-CoV Urbani: 0.6
  Binding of serum 2 to looped/cyclic peptide (PEPSCAN-ELISA): 0.5
  Binding of serum 6 to linear peptides of protein X1 of SARS-CoV Urbani: 0.5
  Binding of serum 6 to looped/cyclic peptide (PEPSCAN-ELISA): 0.3
  Binding of serum 37 to linear peptides of protein X1 of SARS-CoV Urbani: 0.5
  Binding of serum 37 to looped/cyclic peptide (PEPSCAN-ELISA): 0.6
  Binding of serum 62 to linear peptides of protein X1 of SARS-CoV Urbani: 0.5
  Binding of serum 62 to looped/cyclic peptide (PEPSCAN-ELISA): 0.6
  Binding of serum London to linear peptides of protein X1 of SARS-CoV Urbani: 0.2
  Binding of serum London to looped/cyclic peptide (PEPSCAN-ELISA): 0.2
  Binding of serum SARS-green to linear peptides of protein X1 of SARS-CoV Urbani: 0.2
  Binding of serum SARS-green to looped/cyclic peptide (PEPSCAN-ELISA): 0.3
  Binding of serum SARS-yellow to linear peptides of protein X1 of SARS-CoV Urbani: 0.3
  Binding of serum SARS-yellow to looped/cyclic peptide (PEPSCAN-ELISA): 0.4
[2]
  Binding of a rabbit serum to linear peptides: 0.1
  Binding of a rabbit serum to looped peptides: 0.6
[3]
  Binding of Control Serum Blood-Bank to Looped peptides: 0.5
  Binding of Control serum Blood-bank to linear peptides: 0.5
  Binding of Control serum LUMC to linear peptides: 0.9
  Binding of Control serum LUMC to looped peptides: 0.7

## ACIVGLMWLSYFVAS
[1]
  Binding of serum 1a to linear peptides of protein M of SARS-CoV Urbani: 0.7
  Binding of serum 1a to looped/cyclic peptides of protein M of SARS-CoV Urbani: 0.6
  Binding of serum 1b to linear peptides of protein M of SARS-CoV Urbani: 0.5
  Binding of serum 1b to looped/cyclic peptides of protein M of SARS-CoV Urbani: 0.3
  Binding of serum 2 to linear peptides of protein M of SARS-CoV Urbani: 0.5
  Binding of serum 2 to looped/cyclic peptides of protein M of SARS-CoV Urbani: 0.5
  Binding of serum 6 to linear peptides of protein M of SARS-CoV Urbani: 0.4
  Binding of serum 6 to looped/cyclic peptides of protein M of SARS-CoV Urbani: 0.6
  Binding of serum 37 to linear peptides of protein M of SARS-CoV Urbani: 0.6
  Binding of serum 37 to looped/cyclic peptides of protein M of SARS-CoV Urbani: 0.5
  Binding of serum 62 to linear peptides of protein M of SARS-CoV Urbani: 0.7
  Binding of serum 62 to looped/cyclic peptides of protein M of SARS-CoV Urbani: 0.4
  Binding of serum London to linear peptides of protein M of SARS-CoV Urbani: 0.3
  Binding of serum London to looped/cyclic peptides of protein M of SARS-CoV Urbani: 0.2
  Binding of serum SARS-green to linear peptides of protein M of SARS-CoV Urbani: 0.2
  Binding of serum SARS-green to looped/cyclic peptides of protein M of SARS-CoV Urbani: 0.2
  Binding of serum SARS-yellow to linear peptides of protein M of SARS-CoV Urbani: 0.1
  Binding of serum SARS-yellow to looped/cyclic peptides of protein M of SARS-CoV Urbani: 0.4
[2]
  Rabbit serum linear peptides: 0.3
  Rabbit serum looped peptides: 0.8
[3]
  Binding of Control Serum Blood-Bank to Looped peptides of the protein M of SARS-CoV Urbani: 0.6
  Binding of Control serum Blood-bank to linear peptides of the protein M of SARS-CoV Urbani: 0.6
  Binding of Control serum LUMC to linear peptides of the protein M of SARS-CoV Urbani: 0.3
  Binding of Control serum LUMC to looped peptides of the protein M of SARS-CoV Urbani: 0.5

## ACRIIMRCWLCWKCK
[1]
  Recognition of the peptide by sera of SARS-CoV infected individuals, and form (linear, looped/cyclic) in which it is recognized: recognized in linear form
[2]
  Recognition of the peptide by the rabbit serum: recognized
[3]
  Binding of Control Serum Blood-Bank to Looped peptides: 0.1
  Binding of Control serum Blood-bank to linear peptides: 1.0
  Binding of Control serum LUMC to linear peptides: 0.8
  Binding of Control serum LUMC to looped peptides: 0.3

## YKLGASQRVGTDSGF
[2]
  Rabbit serum linear peptides: 0.4
  Rabbit serum looped peptides: 0.2
[3]
  Binding of Control Serum Blood-Bank to Looped peptides of the protein M of SARS-CoV Urbani: 0.7
  Binding of Control serum Blood-bank to linear peptides of the protein M of SARS-CoV Urbani: 0.7
  Binding of Control serum LUMC to linear peptides of the protein M of SARS-CoV Urbani: 0.4
  Binding of Control serum LUMC to looped peptides of the protein M of SARS-CoV Urbani: 0.9

## YQECVRGTTVLLKEP
[2]
  Rabbit serum linear peptides: 0.5
  Rabbit serum looped peptides: 0.5
[3]
  Binding of Control Serum Blood-Bank to Looped peptides: 0.9
  Binding of Control serum Blood-bank to linear peptides: 0.8
  Binding of Control serum LUMC to linear peptides: 0.7
  Binding of Control serum LUMC to looped peptides: 0.8

## YSEDRHSGVKDYVVV
[2]
  Binding of a rabbit serum to linear peptides: 0.1
  Binding of a rabbit serum to looped peptides: 0.4
[3]
  Binding of Control Serum Blood-Bank to Looped peptides: 0.7
  Binding of Control serum Blood-bank to linear peptides: 0.7
  Binding of Control serum LUMC to linear peptides: 0.6
  Binding of Control serum LUMC to looped peptides: 0.8

## YSELDDEEPMELDYP
[2]
  Rabbit serum linear peptides: 0.3
  Rabbit serum looped peptides: 0.3
[3]
  Binding of Control Serum Blood-Bank to Looped peptides of the protein X3 of SARS-CoV Urbani: 0.8
  Binding of Control serum Blood-bank to linear peptides of the protein X3 of SARS-CoV Urbani: 0.7
  Binding of Control serum LUMC to linear peptides of the protein X3 of SARS-CoV Urbani: 0.9
  Binding of Control serum LUMC to looped peptides of the protein X3 of SARS-CoV Urbani: 0.8
